Source: publication PMC10740270, “In-silico guided chemical exploration of KDM4A fragments hits” (Clinical Epigenetics, 2023)
“And” between values parts separate entries of the source, which are not always exact repeats. Equal entries are not always repeated.

T1: KDM4A (Homo sapiens, UniProt O75164)
T1 construct: encoding human KDM4A residues 1–350 with a GST-6xHis tag at the N-terminal; GST-6xHis (followed by TEV cleavage site) (N, cleaved yes); made in house; host or cells: T7 Express E. coli
T1 sequence (O75164 1-350): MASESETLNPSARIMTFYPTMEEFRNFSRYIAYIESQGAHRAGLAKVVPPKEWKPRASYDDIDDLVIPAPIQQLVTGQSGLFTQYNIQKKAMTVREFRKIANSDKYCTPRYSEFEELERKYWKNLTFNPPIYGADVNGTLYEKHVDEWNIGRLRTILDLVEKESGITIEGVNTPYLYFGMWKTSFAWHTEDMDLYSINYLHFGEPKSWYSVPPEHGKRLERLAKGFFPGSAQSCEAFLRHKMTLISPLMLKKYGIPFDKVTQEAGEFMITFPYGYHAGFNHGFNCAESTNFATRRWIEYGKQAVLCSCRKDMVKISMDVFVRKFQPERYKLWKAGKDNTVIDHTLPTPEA

B1: KDM4A (Homo sapiens) (protein)
chain: T1 sequence (O75164 1-350)

Key:
KDM4A [1] = biological target: T1, KDM4A; assay: STD-NMR binding experiment; conditions: 1:50 receptor-to-ligand ratio, 7.5 µM KDM4A
Protocol: (§1) Bio-layer interferometry (BLI) was then used to determine the equilibrium dissociation constant (KD) for the binding event. QC6352 inhibitor [52] and N-[(2-Chloro-6-fluorophenyl)methyl]-2-(2,5-dioxo-4-phenyl-4-propylimidazolidin-1-yl)-N-methylacetamide were used as positive and negative control, respectively. […] Binding was also confirmed by Saturation-Transfer Difference (STD) NMR experiments (Additional file 1: Fig. S5).
STD-NMR experiments STD-NMR spectra were recorded at 800 MHz on Bruker spectrometer and 298 K in 20 mM NaPh, pH = 7.5, 150 mM NaCl, 0.5 mM TCEP, 8% D2O, using 7.5 µM of KDM4A and 20- or 50-fold excess of each compound. A series of Gaussian-shaped pulses of 0.025 s each was employed with a total saturation time for the protein envelope of 2 s. Off-resonance frequency of d = − 40 ppm and on-resonance frequency of d = 0.07 ppm (protein aliphatic signals region) were applied. Spectra were processed and analyzed using Bruker TopSpin software.
Suppl. Fig. S5: STD-NMR analysis of compound 1. […] (i) The 1D NMR reference spectrum of compound 1. (ii) The STD-NMR spectrum of compound 1 in the presence of KDM4A. The NMR spectrum was recorded at 1:50 receptor-to-ligand ratio.

KDM4A [2] = biological target: T1, KDM4A; assay: Enzymatic HTRF-based assay, inhibition of H3K9me3 peptide demethylation; type: biochemical; conditions: for IC50: HTRF, H3K9me3 peptide, 0.5 µM 2-OG, 400 nM KDM4A, ± standard error of fit; for inhibition at 50 µM: read-out: Inhibition at 50 μM
Protocol: The plasmid pGEX4T2-JMJD2A encoding human KDM4A residues 1–350 with a GST-6xHis tag at the N-terminal, followed by Tobacco Etch Virus (TEV) cleavage site, was used for protein expression. The plasmid was used to transform T7 Express E.coli competent cells. Cells were grown in LB media supplemented with ampicillin (100 µg/mL) at 37 °C until the OD600 reached a value around 0.4. Flasks were then cooled down and, after induction by 0.2 mM ITPG at OD600 = 0.8, bacteria were grown at 18 °C for 20 h. After centrifugation at 8000 g (20 min at 4 °C) the obtained pellets were suspended in lysis buffer (20 mM TRIS pH = 8, 0.3 M NaCl, 10 mM imidazole, 5% glycerol, 1 mM DTT, 10 µg/mL DNAse, 0.5 mg/mL lysozyme, 0.5 mM PMSF, 2 cOmplete™ EDTA-free Protease Inhibitor Cocktail, 5 mM MgCl2) and incubated at 25 °C for 1 h. Sonication (1 s ON and 1 s OFF) on ice for 7 min at 48% amplitude was performed. 0.1% Triton X-100 was added and the lysate was incubated on ice for 15 min in agitation. Soluble and insoluble phase were separated by centrifugation at 15,000 rpm, 4 °C for 30 min. Soluble phase was filtered using a 0.45 um syringe filter and directly loaded in 2 × 5 mL His-trap FF Crude column (GE Healthcare) previously equilibrated with loading buffer (20 mM TRIS, pH = 8, 0.3 M NaCl, 1 mM DTT, 10 mM imidazole, 5% glycerol). A linear gradient elution by 500 mM imidazole was done to elute bound KDM4A. In order to remove the GST-6xHis tag and imidazole excess, the eluted KDM4A was incubated with His-tagged TEV-protease (molar ratio 20:1) and dialyzed against 20 mM TRIS, pH = pH 7.5, 0.3 M NaCl, 1 mM DTT overnight at 4 °C. Tag free KDM4A was recovered reloading the dialyzed sample onto a His-trap column and collecting the flow-through. Size exclusion chromatography was used as final polishing step using a Superdex 200 grade 16/600 pg column (GE Healthcare) pre-equilibrated with 10 mM Hepes, pH = 7.5, 150 mM NaCl, 5% glycerol, 0.5 mM TCEP. Fractions containing KDM4A were pooled and concentrated to 50–100 µM, flash frozen in liquid nitrogen, and stored at − 80 °C. Protein concentration was measured by using the predicted molar extinction coefficient (ε280 = 73,800 M^−1 cm^−1), and the purity verified by SDS-PAGE resulted > 95%.
Enzymatic HTRF-based assay was run in two steps: enzymatic reaction and detection. Optimal conditions for both steps were determined by considering: plate format, time and temperature of incubation, substrate and DMSO concentrations.
Dimethyl sulfoxide (DMSO, Sigma-Aldrich D58791) final concentration was 1%. The reaction mixture was incubated for 2 h at 20 °C in ½ area 96 well plates (ref. 6002290 m, Perkin Elmer).
For the detection step, 40 μl of HTRF reagents, H3K9 me2-Eu(K) Ab (Cisbio Bioassays, 61KB2KAE) and Streptavidin XL-665 (Cisbio Bioassays, 610SAXLA), prepared in detection buffer following manufacturer’s instruction (Cisbio Assays, 62SDBRDD), were added to each well and incubated o/n at 20 °C. Fluorescence was measured with a TECAN Spark reader (Männedorf, Switzerland), by setting excitation wavelength at 320 nm and emission wavelength at 620 and 665 nm.
Automation was performed using Bravo (Agilent) liquid handling system. Validation of the assay was performed following NIH guidelines. 2,4-pyridinedicarboxylic acid monohydrate (2,4-PDCA, Sigma Aldrich P63395) was used as positive control at Imax 10 µM, and Z’ was determined on 9 independent experiments always giving a value > 0.5. The following reference compounds were used as internal controls in the screening plates: 2,4-Pyridinedicarboxylic Acid, 8-hydroxyquinoline-5-carboxylic acid, pyrido[3,4-d]pyrimidin-4(3H)-one, 3-(ethylsulfonyl)-N-(4-(pyridin-2-yl)thiazol-2-yl)benzamide, 3-(ethylsulfonyl)-N-(4-(pyridin-2-yl)thiazol-2-yl)benzamide, 3-(methylsulfonyl)-N-(4-(pyridin-2-yl)thiazol-2-yl)benzamide.

KDM4A [3] = biological target: T1, KDM4A; assay: Bio-layer interferometry (BLI) binding to biotinylated KDM4A; conditions: for Kd: BLI, 1:1 Langmuir global fit, 25 °C, 5% DMSO; for LE: ligand efficiency score; for LE / LLE: method of ref 58; for LLE: lipophilic ligand efficiency score
Text: as §1
Bio-layer Interferometry experiments Bio-layer Interferometry was employed to determine the equilibrium dissociation constant (KD) for compounds binding to KDM4A, using a BLI Octet RED96e instrument (Fortebio–Sartorius). Biotinylated KDM4A samples (20 μg/ml) in 10 mM Hepes, pH = 7.5, 150 mM NaCl, 0.5 mM TCEP, 5% glycerol, and 5% DMSO, were loaded onto super streptavidin (SSA) coated biosensors for at least 500 s to saturate the sensors, and then quenched with 10 µg/ml of biocytin for 60 s. Loaded SSA biosensors were then equilibrated in buffer for at least 600 s prior to baseline collection. Association was followed for at least 120 s or until plateau was reached, in a concentration range of 15.6–500 nM for the positive control, and of 3–200 µM for the negative control, and compound 1 and its analogues. Dissociation was followed for at least 300 s. All steps were performed at 25 °C with an agitation speed of 1000 rpm. QC6352 inhibitor [52] and N-[(2-chloro-6-fluorophenyl)methyl]-2-(2,5-dioxo-4-phenyl-4-propylimidazolidin-1-yl)-N-methylacetamide were used as positive and negative control, respectively. Two or three independent experiments were performed for each tested compound.
KD values were estimated by globally fitting the BLI response intensity (nm) as a function of compound concentration (μM) with the Octet Data Analysis Software, using a 1:1 Langmuir binding model.
Biotinylated KDM4A was obtained as follows. 17 nmol of purified recombinant KDM4A was mixed with 17 nmol of NHS-PEG4-Biotin (ThermoFisher Scientific 21,330) in 10 mM Hepes, pH = 7.5, 150 mM NaCl, 0.5 mM TCEP, 5% Glycerol. The solution was incubated at 4 °C for 2 h. Excess biotin was removed by 2 ml Zeba™ Spin Desalting Columns (7 K MWCO).

[4] = substrate: O=C(O)CCC(=O)C(=O)O; assay: purified protein, by the assay type; conditions: other: 2-OG titrated 50 µM to 0.01 µM, Michaelis-Menten plot

Molecule | Binding to KDM4A by STD-NMR (KDM4A [1]) | IC50 (KDM4A [2]) | Kd (KDM4A [3]) [µM] | LE (KDM4A [3]) | LLE (KDM4A [3]) | inhibition at 50 µM (KDM4A [2]) [%] | Km [4] [µM]
CNC(=O)c1cc(C(=O)O)ccn1 [Compound 1, 2-(methylcarbamoyl)isonicotinic acid] | detected compound 1 binding to KDM4A | 7.09 µM and 7.1 µM | 15 ± 0.16 | 0.51 | 4.59 | – | –
COC(=O)c1ccnc(C(=O)NCc2ccccc2)c1 [Compound 5a, Methyl 2-(benzylcarbamoyl)isonicotinate] | – | – | – | – | – | < 50 | –
COC(=O)c1ccnc(C(=O)NCc2nc3ccccc3n2C)c1 [Compound 5d, Methyl 2-(((1-methyl-1H-benzo[d]imidazole-2-yl)methyl)carbamoyl)isonicotinate] | – | – | 55 ± 2 | 0.24 | 1.88 | < 50 | –
O=C(O)c1ccnc(C(=O)NCc2ccccc2)c1 [Compound 6a, 2-(benzylcarbamoyl)isonicotinic acid] | – | – | 45 ± 1 | 0.33 | 2.49 | < 50 | –
O=C(O)c1ccnc(C(=O)NCc2cnco2)c1 [Compound 6b, 2-((Oxazol-5-ylmethyl)carbamoyl)isonicotinic acid] | – | 25.1 µM and 25 µM | 9.5 ± 0.08 | 0.39 | 4.50 | > 90 | –
CCCNC(=O)c1cc(C(=O)O)ccn1 [Compound 6c, 2-(Propylcarbamoyl)isonicotinic acid] | – | 41.6 µM | 10.7 ± 0.2 | 0.48 | 4.18 | > 90 | –
B1 | – | – | – | – | – | – | 0.73 ± 0.16
